Read-outs that look alike come from different tables or passages of the source.
Assay: Effect of a single 2 g dose of SYM-1219 on the plasma pharmacokinetics of EE2 and NET in healthy female subjects
Format: in vivo, human
Description: Methods: Fifty-four (54) healthy female subjects, ages 18-65, received EE2/NET alone and in combination, where SYM-1219+EE2/NET were co-administered on Day 1 (Group B1; N=27) or SYM-1219 on Day 1 and EE2/NET on Day 2 (Group B2; N=27). Serial blood samples were drawn to measure plasma concentrations of EE2/NET. […] Safety was evaluated by recording of adverse events, vital signs, ECGs and standard laboratory tests.

[1] = EE2/NET administered 1 day after SYM-1219
[2] = Group B1: Period 2 (EE2/NET followed by SYM-1219 2 grams on Day 1) vs Period 1 (EE2/NET alone)
[3] = Group B1 Period 1: EE2/NET alone
[4] = Group B1 Period 2: EE2/NET followed by SYM-1219 2 grams on Day 1
[5] = Group B2: Period 2 (SYM-1219 2 grams on Day 1, EE2/NET on Day 2) vs Period 1 (EE2/NET alone)
[6] = Group B2: SYM-1219 2 g on Day 1, EE2/NET on Day 2
[7] = Group B2 Period 1: EE2/NET alone
[8] = Group B2 Period 2: SYM-1219 2 grams on Day 1, EE2/NET on Day 2

- NET Cmax, AUC0-t or AUC0-∞ increase [1]: 9-16%
- NET upper value of the 90% CI for Cmax [1]: 131%
- NET AUC0-t, Geometric LSMean % Ratio (100 * Test/Reference) [2]: 115.52%
- NET AUC0-∞, Geometric LSMean % Ratio (100 * Test/Reference) [2]: 116.27%
- NET Cmax, Geometric LSMean % Ratio (100 * Test/Reference) [2]: 113.18%
- NET Cmax and AUC increase (Group B1: SYM-1219 2 g and EE2/NET co-administered on Day 1): 13%
- NET λz, Mean [3]: 0.07709 h⁻¹
- NET λz, Median [3]: 0.07966 h⁻¹
- NET λz, Mean [4]: 0.07886 h⁻¹
- NET λz, Median [4]: 0.07642 h⁻¹
- NET AUC0-t, Geometric LSMean % Ratio (100 * Test/Reference) [5]: 110.78%
- NET AUC0-∞, Geometric LSMean % Ratio (100 * Test/Reference) [5]: 108.75%
- NET Cmax, Geometric LSMean % Ratio (100 * Test/Reference) [5]: 116.46%
- NET Cmax increase [6]: 16%
- change in NET AUC [6]: no change
- NET λz, Mean [7]: 0.07369 h⁻¹
- NET λz, Median [7]: 0.07458 h⁻¹
- NET Cmax, Mean [8]: 10.6 ng/mL
- NET λz, Mean [8]: 0.07685 h⁻¹
- NET λz, Median [8]: 0.07539 h⁻¹
- NET Cmax, AUC0-t or AUC0-∞ increase (SYM-1219 administered immediately after EE2/NET): 13-16%
- AUC(0-t) (female, human, plasma, Group B1 Period 1: EE2/NET alone, read-out: NET AUC0-t, Geometric LSMeans): 42.2 ng·h/mL
- AUC(0-t) (female, human, plasma, Group B1 Period 1: EE2/NET alone, read-out: NET AUC0-t, Mean): 49.4 ng·h/mL
- AUC(0-t) (female, human, plasma, Group B1 Period 1: EE2/NET alone, read-out: NET AUC0-t, Median): 38.7 ng·h/mL
- AUC(0-inf) (female, human, plasma, Group B1 Period 1: EE2/NET alone, read-out: NET AUC0-∞, Geometric LSMeans): 48.5 ng·h/mL
- AUC(0-inf) (female, human, plasma, Group B1 Period 1: EE2/NET alone, read-out: NET AUC0-∞, Mean): 57.8 ng·h/mL
- AUC(0-inf) (female, human, plasma, Group B1 Period 1: EE2/NET alone, read-out: NET AUC0-∞, Median): 45.3 ng·h/mL
- Cmax (female, human, plasma, Group B1 Period 1: EE2/NET alone, read-out: NET Cmax, Geometric LSMeans): 8.09 ng/mL
- Cmax (female, human, plasma, Group B1 Period 1: EE2/NET alone, read-out: NET Cmax, Mean): 9.18 ng/mL
- Cmax (female, human, plasma, Group B1 Period 1: EE2/NET alone, read-out: NET Cmax, Median): 8 ng/mL
- Tmax (female, human, plasma, Group B1 Period 1: EE2/NET alone, read-out: NET Tmax, Median): 1 h
- half-life (female, human, plasma, Group B1 Period 1: EE2/NET alone, read-out: NET t1/2, Mean (converted)): 9.6 h
- half-life (female, human, plasma, Group B1 Period 1: EE2/NET alone, read-out: NET t1/2, Median (converted)): 8.71 h
- AUC(0-t) (female, human, plasma, Group B1 Period 2: EE2/NET followed by SYM-1219 2 grams on Day 1, read-out: NET AUC0-t, Geometric LSMeans): 48.7 ng·h/mL
- AUC(0-t) (female, human, plasma, Group B1 Period 2: EE2/NET followed by SYM-1219 2 grams on Day 1, read-out: NET AUC0-t, Mean): 53.5 ng·h/mL
- AUC(0-t) (female, human, plasma, Group B1 Period 2: EE2/NET followed by SYM-1219 2 grams on Day 1, read-out: NET AUC0-t, Median): 48.9 ng·h/mL
- AUC(0-inf) (female, human, plasma, Group B1 Period 2: EE2/NET followed by SYM-1219 2 grams on Day 1, read-out: NET AUC0-∞, Geometric LSMeans): 56.4 ng·h/mL
- AUC(0-inf) (female, human, plasma, Group B1 Period 2: EE2/NET followed by SYM-1219 2 grams on Day 1, read-out: NET AUC0-∞, Mean): 62.4 ng·h/mL
- AUC(0-inf) (female, human, plasma, Group B1 Period 2: EE2/NET followed by SYM-1219 2 grams on Day 1, read-out: NET AUC0-∞, Median): 54.3 ng·h/mL
- Cmax (female, human, plasma, Group B1 Period 2: EE2/NET followed by SYM-1219 2 grams on Day 1, read-out: NET Cmax, Geometric LSMeans): 9.16 ng/mL
- Cmax (female, human, plasma, Group B1 Period 2: EE2/NET followed by SYM-1219 2 grams on Day 1, read-out: NET Cmax, Mean): 10.1 ng/mL
- Cmax (female, human, plasma, Group B1 Period 2: EE2/NET followed by SYM-1219 2 grams on Day 1, read-out: NET Cmax, Median): 9.45 ng/mL
- half-life (female, human, plasma, Group B1 Period 2: EE2/NET followed by SYM-1219 2 grams on Day 1, read-out: NET t1/2, Mean (converted)): 9.6 h
- half-life (female, human, plasma, Group B1 Period 2: EE2/NET followed by SYM-1219 2 grams on Day 1, read-out: NET t1/2, Median (converted)): 9.12 h
- AUC(0-t) (female, human, plasma, Group B2 Period 1: EE2/NET alone, read-out: NET AUC0-t, Geometric LSMeans): 46.9 ng·h/mL
- AUC(0-t) (female, human, plasma, Group B2 Period 1: EE2/NET alone, read-out: NET AUC0-t, Mean): 61.4 ng·h/mL
- AUC(0-t) (female, human, plasma, Group B2 Period 1: EE2/NET alone, read-out: NET AUC0-t, Median): 41.7 ng·h/mL
- AUC(0-inf) (female, human, plasma, Group B2 Period 1: EE2/NET alone, read-out: NET AUC0-∞, Geometric LSMeans): 55.1 ng·h/mL
- AUC(0-inf) (female, human, plasma, Group B2 Period 1: EE2/NET alone, read-out: NET AUC0-∞, Mean): 75 ng·h/mL
- AUC(0-inf) (female, human, plasma, Group B2 Period 1: EE2/NET alone, read-out: NET AUC0-∞, Median): 47.4 ng·h/mL
- Cmax (female, human, plasma, Group B2 Period 1: EE2/NET alone, read-out: NET Cmax, Geometric LSMeans): 8.36 ng/mL
- Cmax (female, human, plasma, Group B2 Period 1: EE2/NET alone, read-out: NET Cmax, Mean): 9.63 ng/mL
- Cmax (female, human, plasma, Group B2 Period 1: EE2/NET alone, read-out: NET Cmax, Median): 8.16 ng/mL
- half-life (female, human, plasma, Group B2 Period 1: EE2/NET alone, read-out: NET t1/2, Mean (converted)): 10 h
- half-life (female, human, plasma, Group B2 Period 1: EE2/NET alone, read-out: NET t1/2, Median (converted)): 9.29 h
- AUC(0-t) (female, human, plasma, Group B2 Period 2: SYM-1219 2 grams on Day 1, EE2/NET on Day 2, read-out: NET AUC0-t, Geometric LSMeans): 51.9 ng·h/mL
- AUC(0-t) (female, human, plasma, Group B2 Period 2: SYM-1219 2 grams on Day 1, EE2/NET on Day 2, read-out: NET AUC0-t, Mean): 61.2 ng·h/mL
- AUC(0-t) (female, human, plasma, Group B2 Period 2: SYM-1219 2 grams on Day 1, EE2/NET on Day 2, read-out: NET AUC0-t, Median): 44.5 ng·h/mL
- AUC(0-inf) (female, human, plasma, Group B2 Period 2: SYM-1219 2 grams on Day 1, EE2/NET on Day 2, read-out: NET AUC0-∞, Geometric LSMeans): 60 ng·h/mL
- AUC(0-inf) (female, human, plasma, Group B2 Period 2: SYM-1219 2 grams on Day 1, EE2/NET on Day 2, read-out: NET AUC0-∞, Mean): 71.5 ng·h/mL
- AUC(0-inf) (female, human, plasma, Group B2 Period 2: SYM-1219 2 grams on Day 1, EE2/NET on Day 2, read-out: NET AUC0-∞, Median): 51.6 ng·h/mL
- Cmax (female, human, plasma, Group B2 Period 2: SYM-1219 2 grams on Day 1, EE2/NET on Day 2, read-out: NET Cmax, Geometric LSMeans): 9.74 ng/mL
- Cmax (female, human, plasma, Group B2 Period 2: SYM-1219 2 grams on Day 1, EE2/NET on Day 2, read-out: NET Cmax, Mean): 10.7 ng/mL
- Cmax (female, human, plasma, Group B2 Period 2: SYM-1219 2 grams on Day 1, EE2/NET on Day 2, read-out: NET Cmax, Median): 9.39 ng/mL
- half-life (female, human, plasma, Group B2 Period 2: SYM-1219 2 grams on Day 1, EE2/NET on Day 2, read-out: NET t1/2, Mean (converted)): 9.51 h
- half-life (female, human, plasma, Group B2 Period 2: SYM-1219 2 grams on Day 1, EE2/NET on Day 2, read-out: NET t1/2, Median (converted)): 9.19 h
SMILES: C#C[C@]1(O)CC[C@H]2[C@@H]3CCC4=CC(=O)CC[C@@H]4[C@H]3CC[C@@]21C [NET, norethindrone]
